Patent US9580487B2, “Method of treating stomach or bowel-related disorders by administering glucagon-like-peptide-2 (GLP-2) analogues” (Zealand Pharma A/S, priority 2005, dated 2017)
“Also recorded” adds a separate entry of the source. No end group written: not given here.

What was measured:
[1] = Chemical stability testing: incubation in HCl, NaOH, H2O2 or NH4HCO3 at 40° C., remaining purity by RP-HPLC; format: physicochemical; settings: 40° C.; for Purity H2O2 0.5% 3 days / Purity HCl 0.1M 12 days / Purity NH4HCO3 0.1M 6 days: 2 mg/ml, relative to the purity at T=0; for Purity H2O2 0.5% 3 days / Purity HCl 0.1M 12 days: RP-HPLC; for Purity NH4HCO3 0.1M 6 days: pH 8, RP-HPLC; for Stability during acid hydrolysis (in words): 0.1 M HCl, 12 days
Method: The GLP-2 analogues were dissolved in purified water and subsequently diluted in solutions containing HCl, NaOH, H2O2 or NH4HCO3. The solutions were incubated at 40° C. to produce hydrolysis, deamidation and oxidation products. The samples were analyzed by RP-HPLC and the percentage of remaining intact compound was determined as a measure for the relative stability. The major degradation products were tentatively identified by LC-MS.
The GLP-2 analogues tested and the reference Gly^2-GLP-2, ZP1559 (SEQ ID NO:54), were dissolved in water and subsequently diluted into solutions containing HCl, NaOH, H2O2 or NH4HCO3. The samples were incubated at 40° C. to generate hydrolysis, deamidation and oxidation products, respectively. The compounds were analysed by RP-HPLC for purity of the original main peak and by LC-MS for confirmation of the identity by mass of the main peak and major degradation products.
The GLP-2 analogues were first dissolved in MQW to a concentration of 4 mg/ml and then further diluted in the stress solutions at a 1:1 ratio (e.g. 125 μl plus 125 μl). The final concentrations were 2 mg/ml of the GLP-2 analogues for stress conditions with 0.1 M HCl, 0.01M NaOH, 0.1 M NH4HCO3 and 0.5% H2O2, respectively.
The solutions were incubated at 40° C. in the dark and then diluted in Eluent A to a concentration of 0.5 mg/ml (addition of 750 μl) prior to analyses by RP-HPLC and by LC-MS.
The RP-HPLC analyses were performed on an Agilent Series 1100 HPLC system under control of the ChemStation (Revision A.08.03 [847]) software from Agilent Technologies, Inc. The raw data and the results of the peak integration were deposited on the ChemStore C/S server by the use of Agilent Technologies Revision B01.03 software.
The results are shown in Table 9 as the compound purity measured by RP-HPLC after incubation under stress conditions. This purity is a measure for the remaining intact compound after incubation in stress solutions, relative to the purity measured a T=0.

male C57BL mice [2] = experiment: Dose-response effect on intestinal growth (SI mass, SI-Colon Sensitivity Index, colon and stomach mass); format: in vivo; settings: 5-405 nmol/kg s.c. b.i.d. for three days
Method: Values are means±SEM. *: P<0.05 relative to the equimolar dose of [Gly2]GLP-2 (SEQ ID NO:54).
FIG. 2 is a set of graphs showing full dose-response data of four small intestine selective compounds (compound nos. 1846 (SEQ ID NO:34), 1855 (SEQ ID NO:43), 1848 (SEQ ID NO:36), 1858 (SEQ ID NO:46)) on the Small Intestine (SI)-to-Colon Sensitivity Index mice relative to the non-selective reference compound [Gly2]GLP-2 (SEQ ID NO:54). Compounds were administered by subcutaneous injection b.i.d. for three days in C57BL mice at the following doses: 0 (vehicle), 5, 15, 45, 135, 405 nmol/kg (n=6/dose group). Responses at each dose level were compared with responses obtained at the same dose level in pair-treated mice treated with the non-selective reference compound [Gly2]GLP-2 (SEQ ID NO:54). The SI-Colon Sensitivity Index was calculated as SI-mass relative to colon mass and the Sensitivity Index at each dose level was normalized to the response observed with the non-selective reference compound [Gly2]GLP-2 (SEQ ID NO:54). […] Values are means±SEM. *: P<0.05 relative to the equimolar dose of [Gly2]GLP-2.
FIG. 4 is a set of graphs showing full dose-response data of three small intestine selective compounds (compound nos. 1857 (SEQ ID NO:45), 1820 (SEQ ID NO:10), and 1849 (SEQ ID NO:37)) on the Small Intestine (SI)-to-Colon Sensitivity Index mice relative to the non-selective reference compound [Gly2]GLP-2 (SEQ ID NO:54). Compounds were administered by subcutaneous injection b.i.d. for three days in C57BL mice at the following doses: 0 (vehicle), 5, 15, 45, 135, 405 nmol/kg (n=6/dose group). Responses at each dose level were compared with responses obtained at the same dose level in pair-treated mice treated with the non-selective reference compound [Gly2]GLP-2 (SEQ ID NO:54). The SI-Colon Sensitivity Index was calculated as SI-mass relative to colon mass and the Sensitivity Index at each dose level was normalized to the response observed with the non-selective reference compound [Gly2]GLP-2 (SEQ ID NO:54). […] Values are means±SEM. *: P<0.05 relative to the equimolar dose of [Gly2]GLP-2 (SEQ ID NO:54).
Compounds were administered by subcutaneous injection b.i.d. for three days in C57BL mice at the following doses: 0 (vehicle), 5, 15, 45, 135, 405 nmol/kg (n=6/dose group). […] Values are means±SEM. *: P<0.05 relative to the vehicle.
The dose-response effect of 1820 (SEQ ID NO:10), 1855 (SEQ ID NO:43), ZP1846 (SEQ ID NO:34), 1858 (SEQ ID NO:46), 1849 (SEQ ID NO:37), 1848 (SEQ ID NO:36), and 1857 (SEQ ID NO:45) on small intestinal mass was determined in male C57BL mice. Individual groups (n=6) of mice were given 5, 15, 45, 135 or 405 nmol/kg of each compound, s.c, twice daily for three consecutive days. For comparison purposes other groups of animals were given either equimolar doses of [Gly2]GLP-2 (SEQ ID NO:54) or vehicle (phosphate buffered saline, pH 7.4) in the same dosing regimen. Twenty-four hours after the last dose of compound had been given the mice were sacrificed and the small intestine (from the pylorus to the cecum emptied and weighed to determine the effect on small intestinal mass.

male C57BL mice [3] = experiment: Screening for intestinal growth effects (small intestine and colon mass relative to body weight, small intestine-colon sensitivity index); format: in vivo; settings: for Small intestine mass relative to [Gly2]GLP-2 / Preferential growth of small intestine versus colon (small intestine-colon sensitivity): 30 nmol/kg s.c. twice daily, ten days; for Small intestine mass relative to [Gly2]GLP-2: equimolar [Gly2]GLP-2; for Preferential growth of small intestine versus colon (small intestine-colon sensitivity): relative to [Gly2]GLP-2; for colon mass relative to body weight, % [Gly2]GLP-2 / small intestine-colon sensitivity index, (SI/Colon)X/(SI/Colon)[Gly2]GLP-2 %: male C57BL mice, 30 nmol/kg s.c. twice daily for ten days; for small intestine-colon sensitivity index, (SI/Colon)X/(SI/Colon)[Gly2]GLP-2 %: third value column
Method: The ability of the present compounds to stimulate intestinal growth was determined in male C57BL mice. Individual groups (n=6) of mice were given 30 nmol/kg of each compound, s.c, twice daily for ten consecutive days. For comparison purposes other groups of animals were given either an equimolar dose of [Gly2]GLP-2 (SEQ ID NO:54) or vehicle (phosphate buffered saline, pH 7.4) in the same dosing regimen. Twenty-four hours after the last dose of compound had been given the mice were sacrificed and the small intestine (from the pylorus to the cecum) and the colon (intestine distal to cecum) was emptied and weighed. To correct for slight difference in body weight (BW), the organ mass of the small intestine (SI) and colon were expressed relative to BW. The non-selective reference compound [Gly2]GLP-2 (SEQ ID NO:54) has been reported to stimulate gastrointestinal growth in both esophagus, stomach, small intestine and colon and to evaluate differences in growth pattern induced by compounds, the small intestine-colon sensitivity index of compound X was calculated as:
(SI/Colon)X/(SI/Colon)[Gly2]GLP-2%
Compounds with a small intestine-colon sensitivity greater than or equal to 1.05 were considered relatively selective for the small intestine (Table 15).
Compounds with a small intestine-colon sensitivity smaller than or equal to 0.95 were considered relatively selective for the colon (Table 15).

| Substance | Purity H2O2 0.5% 3 days [1] | Purity HCl 0.1M 12 days [1] | Purity NH4HCO3 0.1M 6 days [1] | SI-Colon Sensitivity Index (SI mass relative to colon mass) relative to [Gly2]GLP-2 (male C57BL mice [2]) | Small intestinal mass (SI-BW ratio), maximal response relative to [Gly2]GLP-2 (male C57BL mice [2]) | Small intestine mass relative to [Gly2]GLP-2 (male C57BL mice [3]) | Preferential growth of small intestine versus colon (small intestine-colon sensitivity) (male C57BL mice [3]) | colon mass relative to body weight, % [Gly2]GLP-2 (male C57BL mice [3]) | small intestine-colon sensitivity index, (SI/Colon)X/(SI/Colon)[Gly2]GLP-2 % (male C57BL mice [3]) | Stability during acid hydrolysis (in words) [1] |
| --- | --- | --- | --- | --- | --- | --- | --- | --- | --- | --- |
| [Gly2, Glu3, Ser8, Leu10, Ala11,16,24,28]hGLP-2(1-33)-(Lys)6-NH2 (HGEGSFSSELATILDALAARDFIAWLIATKITDKKKKKK-NH2) [Compound 1849] | 78% | 64% | 86% | increased maximal small intestinal sensitivity relative to [Gly2]GLP-2; also recorded: increased selectivity for causing growth of the small intestine relative to the colon | maximal responses that were significantly greater than [Gly2]GLP-2 | increased small intestine mass relative to [Gly2]GLP-2 | supplementary increase in the weight of the small intestine without significant effecting the weight of the colon; also recorded: preferentially stimulating epithelial growth in the small intestine | 95 % [Gly2]GLP-2 | 115 % [Gly2]GLP-2 |  |
| [Gly2, Glu3, Ser8, Leu10, Ala11,16,24,28]hGLP-2(1-33)-NH2 (HGEGSFSSELATILDALAARDFIAWLIATKITD-NH2) [Compound 1858] | 60% | 88% | 91% |  | maximal responses that were significant greater than [Gly2]GLP-2 | increased small intestine mass relative to [Gly2]GLP-2 | supplementary increase in the weight of the small intestine without significant effecting the weight of the colon; also recorded: preferentially stimulating epithelial growth in the small intestine | 96 % [Gly2]GLP-2 | 108 % [Gly2]GLP-2 | tendency of slightly higher stability |
| [Gly2, Thr7, Ser8, Leu10, Ala11,24]hGLP-2(1-30)-K6-NH2 [Compound 1820] | 62% | 45% | 85% | increased maximal small intestinal sensitivity relative to [Gly2]GLP-2 | maximal responses that were significantly greater than [Gly2]GLP-2 | increased small intestine mass relative to [Gly2]GLP-2 | supplementary increase in the weight of the small intestine without significant effecting the weight of the colon; also recorded: preferentially stimulating epithelial growth in the small intestine |  |  | less stable than the remaining six candidates due to acid hydrolysis |
| [Gly2, Thr7, Ser8, Leu10, Ala11,24]hGLP-2(1-30)-NH2 (HGDGSFTSELATILDNLAARDFIAWLIQTK-NH2) [Compound 1834] | 53% | 38% | 91% |  |  |  | without preferential growth in small intestine or colon |  |  | less stable than the remaining six candidates due to acid hydrolysis |
| [Thr7, Leu10, Ala11, Ala24]hGLP-2 (1-30)-NH2 [Compound 1843] |  |  |  |  |  |  | preferentially stimulating epithelial growth in the colon | 130 % [Gly2]GLP-2 | 85 % [Gly2]GLP-2 |  |
| [Thr7, Ser8, Leu10, Lys11, Ala24]hGLP-2 (1-30)-NH2 [Compound 1842] |  |  |  |  |  |  | without preferential growth in small intestine or colon |  |  |  |
